In patent publication US20030021763A1, “Method for the treatment and/or prophylaxis of diseases caused by IL-12” (Gruenenthal GmbH., priority 1999, published 2003):
“And” between values parts separate entries of the source, which are not always exact repeats. Identical values can stand only once.

Test system: IL-12 production of LPS-activated monocytes
Assay: Stimulation of human monocytes with lipopolysaccharide to secrete IL-12 (IL-12 sandwich ELISA of culture supernatants)
Format: cell-based
Conditions: for inhibition at 0.05 µg/mL / inhibition at 0.5 µg/mL / inhibition at 5 µg/mL: Homo sapiens, Monocyte, read-out: % inhibition of the IL-12 production of the control without inhibitors; for inhibition at 0.05 µg/mL / inhibition at 0.5 µg/mL / inhibition at 5 µg/mL / % inhibition of the IL-12 production of the control without inhibitors / IL-12 production: LPS 20 μg/ml, 24 hours; for action on the IL-12 production of LPS-stimulated monocytes: Tables 2 to 4
Description: Stimulation of Human Monocytes with Lipopolysaccharide to Secrete IL-12
Human monocytes were isolated from peripheral blood mononuclear cells (PBMC) which had been obtained from heparinized full blood by a Ficoll density gradient centrifugation. To that end, the PBMC were incubated with a monoclonal antibody directed against the monocyte-specific surface molecule CD14 and to which superparamagnetic microbeads (Miltenyi Biotech, Bergisch Gladbach) were coupled. For the positive selection of the labelled monocytes from the PBMC cell mixture, the total cell suspension was applied to a column having a ferromagnetic carrier matrix, and the column was placed in a magnetic field. The cells charged with microbeads were thus bonded to the carrier matrix, while unlabelled cells passed through the column and were discarded. After removing the matrix from the magnetic field, the antibody-charged cells were eluted by flushing the now demagnetised column with buffer. The purity of the resulting CD14-positive monocyte population was approximately from 95 to 98%. The monocytes were incubated for one hour at 37° C. and 5% CO2 in a density of 10^6cells/ml culture medium (RPMI, supplemented with 10% foetal calf serum) with the test substances dissolved in DMSO. 20 μg/ml of LPS from E. coli were then added. After 24 hours, cell-free culture supernatants were collected and tested for their IL-12 content.
The concentration of IL-12 in the cell culture supernatants was determined by sandwich ELISA's using two anti-IL-12 monoclonal antibodies (Biosource Europe, Fleurus, Belgium). A reference standard curve with human IL-12 was included. The detection limit of the IL-12 ELISA was 10 pg/ml.

[1] = test substance 0.05 μg/ml, IL-10 0 pg/ml
[2] = test substance 0.5 μg/ml, IL-10 0 pg/ml
[3] = test substance 5 μg/ml, IL-10 0 pg/ml
[4] = test substance 0.05 μg/ml combined with IL-10 5 pg/ml
[5] = test substance 0.05 μg/ml combined with IL-10 50 pg/ml
[6] = test substance 0.5 μg/ml combined with IL-10 5 pg/ml
[7] = test substance 0.5 μg/ml combined with IL-10 50 pg/ml
[8] = test substance 5 μg/ml combined with IL-10 5 pg/ml
[9] = test substance 5 μg/ml combined with IL-10 50 pg/ml
[10] = test substance 0.005 μg/ml combined with IL-10 5 pg/ml
[11] = test substance 0.005 μg/ml combined with IL-10 50 pg/ml
[12] = test substance 0.005 μg/ml, IL-10 0 pg/ml

| Compound | inhibition at 0.05 µg/mL [1] | inhibition at 0.5 µg/mL [2] | inhibition at 5 µg/mL [3] | action on the IL-12 production of LPS-stimulated monocytes | % inhibition of the IL-12 production of the control without inhibitors [4] | IL-12 production [4] | % inhibition of the IL-12 production of the control without inhibitors [5] | IL-12 production [5] | IL-12 production [1] | % inhibition of the IL-12 production of the control without inhibitors [6] | IL-12 production [6] | % inhibition of the IL-12 production of the control without inhibitors [7] | IL-12 production [7] | IL-12 production [2] | % inhibition of the IL-12 production of the control without inhibitors [8] | IL-12 production [8] | % inhibition of the IL-12 production of the control without inhibitors [9] | IL-12 production [9] | IL-12 production [3] | also measured |
| --- | --- | --- | --- | --- | --- | --- | --- | --- | --- | --- | --- | --- | --- | --- | --- | --- | --- | --- | --- | --- |
| O=C1CCC(N2Cc3ccccc3C2=O)C(=O)N1 (centres unmarked) [EM 12, 3-(1-oxo-1,3-dihydro-isoindol-2-yl)-piperidine-2,6-dione] | 47% | 68% | 66% | dose-dependent inhibitory action | 55% | 2944 pg/mL | 91% | 589 pg/mL | 3478 pg/mL | 78% | 1462 pg/mL | 90% | 649 pg/mL | 2098 pg/mL | 81% | 1271 pg/mL | 92% | 546 pg/mL | 2220 pg/mL |  |
| CC1(N2C(=O)c3ccccc3C2=O)CCC(=O)NC1=O (stereo not drawn) [EM 978, α-methyl thalidomide] |  |  |  | dose-dependent inhibitory action | 61% | 1897 pg/mL | 68% | 1555 pg/mL | 3161 pg/mL | 94% | 272 pg/mL | 96% | 191 pg/mL | 439 pg/mL |  |  |  |  |  | % inhibition of the IL-12 production of the control without inhibitors [10]: 40%; IL-12 production [10]: 2922 pg/mL; % inhibition of the IL-12 production of the control without inhibitors [11]: 53%; IL-12 production [11]: 2302 pg/mL; % inhibition of the IL-12 production of the control without inhibitors [12]: 7%; IL-12 production [12]: 4571 pg/mL; % inhibition of the IL-12 production of the control without inhibitors [1]: 35%; % inhibition of the IL-12 production of the control without inhibitors [2]: 91%; concentration lower than in the case of thalidomide or EM 12 to achieve the same effects (versus thalidomide or EM 12): 10 times lower |
| O=C1CCC(N2C(=O)c3ccccc3C2=O)C(=O)N1 (centres unmarked) [Thalidomide, 2-(2,6-dioxo-piperidin-3-yl)-isoindole-1,3-dione, reference compound] | 45% | 67% | 76% | dose-dependent inhibitory action | 68% | 1958 pg/mL | 87% | 809 pg/mL | 3369 pg/mL | 81% | 1147 pg/mL | 90% | 618 pg/mL | 2037 pg/mL | 83% | 1057 pg/mL | 93% | 447 pg/mL | 1481 pg/mL |  |
| IL-10: anti-inflammatory cytokine originally described as cytokine synthesis inhibitory factor |  |  |  | dose-dependent inhibitory action |  |  |  |  |  |  |  |  |  |  |  |  |  |  |  | EC50: 0.05 ng/mL; IL-12 production (IL-10 5 pg/ml alone (thalidomide compound 0 μg/ml)): 5637 pg/mL and 4393 pg/mL and 4581 pg/mL; % inhibition of the IL-12 production of the control without inhibitors (IL-10 50 pg/ml alone (thalidomide compound 0 μg/ml)): 58% and 47% and 81% |
